In PMC2362650, “Phase I and pharmacokinetic study of the topoisomerase II catalytic inhibitor fostriecin” (British Journal of Cancer, 1999):

Experiment: Phase I study: toxicity graded with NCI common toxicity criteria in patients
Format: in vivo, human
Source text: Fostriecin (CI-920) is a topoisomerase (topo) II catalytic activity inhibitor (Boritzki et al, 1988) (Figure 1). This novel class of topo II-targeting drugs is considered of potential value for treatment of patients with tumours resistant to classic topo II poisons, including anthracyclines and podophyllotoxins (Cummings and Smyth, 1993). The nuclear enzyme topo II is essential for the regulation of DNA conformation (reviewed in Osheroff et al, 1991). Central in its action is the formation of a complex with DNA. Stabilization of this complex by topo II poisons induces DNA damage and cell death (Froelich-Ammon and Osheroff, 1995). Decreased complex formation due to decreased topo II levels is considered to be an important mechanism of tumour-resistance to topo II poisons (Beck and Danks, 1991). The topo II catalytic inhibitor fostriecin is expected to have increased activity against tumour cells with low topo II levels and this was confirmed in in vitro studies (De Jong et al, 1991). […] Because of increased toxi- city of fostriecin in dogs compared to mice, a dose below one-third of the one-tenth mouse equivalent LD10, 2 mg m-2 day-1, was chosen as starting dose in humans (Clinical Brochure Fostriecin, 1991). […] We also performed an analysis of the human pharmacokinetics of fostriecin and ex vivo experiments to investigate if the plasma drug concentrations achieved were sufficient to inhibit a tenipo- side-resistant tumour cell line. The maximum tolerated dose (MTD) of fostriecin could not be established because drug supply was stopped prematurely. However, results of this study may provide a basis for continued clinical development of this agent. PATIENTS AND METHODS Patient selection, drug administration and evaluation Patient eligibility criteria were: histologically confirmed diagnosis of a solid tumour, no longer amenable to established forms of treatment; age 18-75 years; Eastern Cooperative Oncology Group (ECOG) performance status 2; life expectancy 12 weeks; no Phase I and pharmacokinetic study of the topoisomerase II catalytic inhibitor fostriecin RS de Jong1, NH Mulder1, DRA Uges2, DTh Sleijfer1, FJP Hoppener4, HJM Groen3, PHB Willemse1, WTA van der Graaf1 and EGE de Vries1 Departments of 1Medical Oncology, 2Pharmacy and Toxicology, and 3Pulmonary Diseases, University Hospital Groningen, The Netherlands; 4EORTC New Drug Development Office, Amsterdam, The Netherlands Summary We conducted a phase I and pharmacokinetic study of the topoisomerase II catalytic inhibitor fostriecin. Fostriecin was administered intravenously over 60 min on days 1-5 at 4-week intervals. Dose was escalated from 2 mg m-2 day-1 to 20 mg m-2 day-1 in 20 patients. Drug pharmacokinetics was analysed with high performance liquid chromatography with UV-detection. Plasma collected during drug administration was tested in vitro for growth inhibition of a teniposide-resistant small-cell lung cancer (SCLC) cell line. The predominant toxicities were elevated liver transaminases (maximum common toxicity criteria (CTC) grade 4) and serum creatinine (maximum CTC grade 2). […] Duration of elevated alanine-amino transferase (ALT) was dose-limiting in one patient at 20 mg m-2. Other frequent toxicities were grade 1-2 nausea/vomiting, fever and mild fatigue. […] A metabolite, most probably dephosphorylated fostriecin, was detected in plasma and urine. […] However, further escalation seems possible and is warranted to achieve potentially effective drug levels. Fostriecin has a short plasma half-life and longer duration of infusion should be considered. […]

[1] = 4 mg m-2, 5 patients/11 courses
[2] = 6.6 mg m-2, 3 patients/4 courses
[3] = 10 mg m-2, 3 patients/7 courses

**Q.** With `C[C@@](O)(/C=C/[C@H]1CC=CC(=O)O1)[C@@H](C[C@@H](O)\C=C/C=C\C=C\CO)OP(=O)(O)O` [fostriecin] as the molecule, how does the “CTC-grade 1 ALP: courses causing toxicity, all full-dose courses” value (shortened to “CTC-grade 1 ALP … all full-dose courses”) (2 mg m-2, 4 patients/8 courses) read?
**A.** 2

**Q.** What about the “CTC-grade 1 ALP: patients developing toxicity in first course” value (“CTC-grade 1 ALP … in first course” for short) (2 mg m-2, 4 patients/8 courses) of the same molecule?
**A.** 1

**Q.** What about the “CTC-grade 1 ALT: courses causing toxicity, all full-dose courses” value (“CTC-grade 1 ALT … all full-dose courses” for short) (2 mg m-2, 4 patients/8 courses) of the same molecule?
**A.** 6

**Q.** And the “CTC-grade 1 ALT: patients developing toxicity in first course” value (“CTC-grade 1 ALT … in first course” below) (2 mg m-2, 4 patients/8 courses)?
**A.** 2

**Q.** And the “CTC-grade 1 AST: courses causing toxicity, all full-dose courses” value (“CTC-grade 1 AST … all full-dose courses” below) (2 mg m-2, 4 patients/8 courses)?
**A.** 2

**Q.** And the “CTC-grade 1 AST: patients developing toxicity in first course” value (shortened to “CTC-grade 1 AST … in first course”) (2 mg m-2, 4 patients/8 courses)?
**A.** 2

**Q.** And the “CTC-grade 1 GGT: courses causing toxicity, all full-dose courses” value (from here on “CTC-grade 1 GGT … all full-dose courses”) (2 mg m-2, 4 patients/8 courses)?
**A.** 2

**Q.** What about the “CTC-grade 1 GGT: patients developing toxicity in first course” value (“CTC-grade 1 GGT … in first course” below) (2 mg m-2, 4 patients/8 courses) of the same molecule?
**A.** 0

**Q.** What about the “CTC-grade 1 creatinine: courses causing toxicity, all full-dose courses” value (“CTC-grade 1 creatinine … all full-dose courses” below) (2 mg m-2, 4 patients/8 courses) of the same molecule?
**A.** 4

**Q.** What about the “CTC-grade 1 creatinine: patients developing toxicity in first course” value (from here on “CTC-grade 1 creatinine … in first course”) (2 mg m-2, 4 patients/8 courses) of the same molecule?
**A.** 2

**Q.** What about the “CTC-grade 2 ALT: courses causing toxicity, all full-dose courses” value (“CTC-grade 2 ALT … all full-dose courses” below) (2 mg m-2, 4 patients/8 courses) of the same molecule?
**A.** 1

**Q.** And the “CTC-grade 2 ALT: patients developing toxicity in first course” value (shortened to “CTC-grade 2 ALT … in first course”) (2 mg m-2, 4 patients/8 courses)?
**A.** 1

**Q.** And the “CTC-grade 2 GGT: courses causing toxicity, all full-dose courses” value (from here on “CTC-grade 2 GGT … all full-dose courses”) (2 mg m-2, 4 patients/8 courses)?
**A.** 2

**Q.** And the “CTC-grade 2 GGT: patients developing toxicity in first course” value (“CTC-grade 2 GGT … in first course” below) (2 mg m-2, 4 patients/8 courses)?
**A.** 1

**Q.** And the “CTC-grade 1 ALP … all full-dose courses” value [1]?
**A.** 3

**Q.** And the “CTC-grade 1 ALP … in first course” value [1]?
**A.** 3

**Q.** And the “CTC-grade 1 ALT … all full-dose courses” value [1]?
**A.** 8

**Q.** And the “CTC-grade 1 ALT … in first course” value [1]?
**A.** 4

**Q.** What about the “CTC-grade 1 AST … all full-dose courses” value [1] of the same molecule?
**A.** 7

**Q.** What about the “CTC-grade 1 AST … in first course” value [1] of the same molecule?
**A.** 3

**Q.** And the “CTC-grade 1 GGT … all full-dose courses” value [1]?
**A.** 1

**Q.** And the “CTC-grade 1 GGT … in first course” value [1]?
**A.** 1

**Q.** What about the “CTC-grade 1 creatinine … all full-dose courses” value [1] of the same molecule?
**A.** 7

**Q.** What about the “CTC-grade 1 creatinine … in first course” value [1] of the same molecule?
**A.** 3

**Q.** And the “CTC-grade 2 ALP: courses causing toxicity, all full-dose courses” value [1]?
**A.** 1

**Q.** What about the “CTC-grade 2 ALP: patients developing toxicity in first course” value [1] of the same molecule?
**A.** 0

**Q.** And the “CTC-grade 2 ALT … all full-dose courses” value [1]?
**A.** 1

**Q.** And the “CTC-grade 2 ALT … in first course” value [1]?
**A.** 0

**Q.** And the “CTC-grade 2 AST: courses causing toxicity, all full-dose courses” value (“CTC-grade 2 AST … all full-dose courses” below) [1]?
**A.** 1

**Q.** And the “CTC-grade 2 AST: patients developing toxicity in first course” value (“CTC-grade 2 AST … in first course” for short) [1]?
**A.** 1

**Q.** And the “CTC-grade 2 GGT … all full-dose courses” value [1]?
**A.** 0

**Q.** What about the “CTC-grade 2 GGT … in first course” value [1] of the same molecule?
**A.** 0

**Q.** And the “CTC-grade 3 ALT: courses causing toxicity, all full-dose courses” value (from here on “CTC-grade 3 ALT … all full-dose courses”) [1]?
**A.** 2

**Q.** What about the “CTC-grade 3 ALT: patients developing toxicity in first course” value (from here on “CTC-grade 3 ALT … in first course”) [1] of the same molecule?
**A.** 1

**Q.** And the “CTC-grade 3 AST: courses causing toxicity, all full-dose courses” value [1]?
**A.** 1

**Q.** What about the “CTC-grade 3 AST: patients developing toxicity in first course” value [1] of the same molecule?
**A.** 0

**Q.** And the “CTC-grade 3 GGT: courses causing toxicity, all full-dose courses” value (from here on “CTC-grade 3 GGT … all full-dose courses”) [1]?
**A.** 4

**Q.** What about the “CTC-grade 3 GGT: patients developing toxicity in first course” value (from here on “CTC-grade 3 GGT … in first course”) [1] of the same molecule?
**A.** 1

**Q.** And the “CTC-grade 1 ALP … all full-dose courses” value [2]?
**A.** 3

**Q.** And the “CTC-grade 1 ALP … in first course” value [2]?
**A.** 0

**Q.** And the “CTC-grade 1 ALT … all full-dose courses” value [2]?
**A.** 2

**Q.** And the “CTC-grade 1 ALT … in first course” value [2]?
**A.** 2

**Q.** And the “CTC-grade 1 AST … all full-dose courses” value [2]?
**A.** 0

**Q.** What about the “CTC-grade 1 AST … in first course” value [2] of the same molecule?
**A.** 0

**Q.** And the “CTC-grade 1 GGT … all full-dose courses” value [2]?
**A.** 0

**Q.** What about the “CTC-grade 1 GGT … in first course” value [2] of the same molecule?
**A.** 0

**Q.** What about the “CTC-grade 1 creatinine … all full-dose courses” value [2] of the same molecule?
**A.** 1

**Q.** And the “CTC-grade 1 creatinine … in first course” value [2]?
**A.** 1

**Q.** And the “CTC-grade 2 ALP: courses causing toxicity, all full-dose courses” value [2]?
**A.** 1

**Q.** What about the “CTC-grade 2 ALP: patients developing toxicity in first course” value [2] of the same molecule?
**A.** 0

**Q.** What about the “CTC-grade 2 ALT … all full-dose courses” value [2] of the same molecule?
**A.** 1

**Q.** And the “CTC-grade 2 ALT … in first course” value [2]?
**A.** 1

**Q.** What about the “CTC-grade 2 AST … all full-dose courses” value [2] of the same molecule?
**A.** 1

**Q.** And the “CTC-grade 2 AST … in first course” value [2]?
**A.** 1

**Q.** And the “CTC-grade 2 GGT … all full-dose courses” value [2]?
**A.** 0

**Q.** What about the “CTC-grade 2 GGT … in first course” value [2] of the same molecule?
**A.** 0

**Q.** What about the “CTC-grade 2 bilirubin: courses causing toxicity, all full-dose courses” value [2] of the same molecule?
**A.** 1

**Q.** And the “CTC-grade 2 bilirubin: patients developing toxicity in first course” value [2]?
**A.** 1

**Q.** What about the “CTC-grade 3 ALT … all full-dose courses” value [2] of the same molecule?
**A.** 1

**Q.** What about the “CTC-grade 3 ALT … in first course” value [2] of the same molecule?
**A.** 0

**Q.** What about the “CTC-grade 3 AST: courses causing toxicity, all full-dose courses” value [2] of the same molecule?
**A.** 2

**Q.** What about the “CTC-grade 3 AST: patients developing toxicity in first course” value [2] of the same molecule?
**A.** 1

**Q.** And the “CTC-grade 3 GGT … all full-dose courses” value [2]?
**A.** 1

**Q.** What about the “CTC-grade 3 GGT … in first course” value [2] of the same molecule?
**A.** 1

**Q.** And the “CTC-grade 1 ALP … all full-dose courses” value [3]?
**A.** 1

**Q.** What about the “CTC-grade 1 ALP … in first course” value [3] of the same molecule?
**A.** 1

**Q.** And the “CTC-grade 1 ALT … all full-dose courses” value [3]?
**A.** 0

**Q.** What about the “CTC-grade 1 ALT … in first course” value [3] of the same molecule?
**A.** 0

**Q.** What about the “CTC-grade 1 AST … all full-dose courses” value [3] of the same molecule?
**A.** 3

**Q.** And the “CTC-grade 1 AST … in first course” value [3]?
**A.** 0

**Q.** What about the “CTC-grade 1 GGT … all full-dose courses” value [3] of the same molecule?
**A.** 6

**Q.** And the “CTC-grade 1 GGT … in first course” value [3]?
**A.** 2

**Q.** And the “CTC-grade 1 creatinine … all full-dose courses” value [3]?
**A.** 3

**Q.** What about the “CTC-grade 1 creatinine … in first course” value [3] of the same molecule?
**A.** 2

**Q.** What about the “CTC-grade 2 ALT … all full-dose courses” value [3] of the same molecule?
**A.** 3

**Q.** What about the “CTC-grade 2 ALT … in first course” value [3] of the same molecule?
**A.** 0

**Q.** And the “CTC-grade 2 AST … all full-dose courses” value [3]?
**A.** 1

**Q.** And the “CTC-grade 2 AST … in first course” value [3]?
**A.** 1

**Q.** And the “CTC-grade 2 GGT … all full-dose courses” value [3]?
**A.** 0

**Q.** What about the “CTC-grade 2 GGT … in first course” value [3] of the same molecule?
**A.** 0

**Q.** And the “CTC-grade 2 creatinine: courses causing toxicity, all full-dose courses” value [3]?
**A.** 4

**Q.** And the “CTC-grade 2 creatinine: patients developing toxicity in first course” value [3]?
**A.** 1

**Q.** What about the “CTC-grade 3 ALT … all full-dose courses” value [3] of the same molecule?
**A.** 2

**Q.** What about the “CTC-grade 3 ALT … in first course” value [3] of the same molecule?
**A.** 2

**Q.** And the “CTC-grade 3 GGT … all full-dose courses” value [3]?
**A.** 1

**Q.** What about the “CTC-grade 3 GGT … in first course” value [3] of the same molecule?
**A.** 1
